This passage reports IC50 results from patent US6908930B2, “4-substituted 7-AZA-indolin-2-ones and their use as protein kinase inhibitors” (Sugen, Inc., priority 1999, dated 2005).

SMILES strings stand for the structures. Where a name gives a salt, the structure may show the parent alone.

Experiment [1] concerns the target T1, human cdk2/cyclin A (Homo sapiens, UniProt P24941).
T1 construct: made in house; host or cells: Sf9 (baculovirus)
Description: Assay for inhibition of CDK2 (Scintillation Proximity Assay). Type of experiment: biochemical. The conditions noted are these: read-out: cdk2SPA IC50. The protocol: Using the following reagents, supplies, and method, the ability of compounds of the invention to assay for modulation of the in vitro kinase activity of human cdk2/cyclin A in a Scintillation Proximity Assay (SPA).
Activated cdk2/cyclin A enzyme complex is purified from Sf9 cells and stored at −80° C. in 200 μL aliquots. Human cdk2/cyclin A protein is expressed, activated, and purified from baculovirus infected sf9 cells as described previously. (J. Mol. Biol., 230:1317-1319 (1993)).
The substrate is a biotinylated peptide substrate (Debtide), which is a peptide biotin-X-[…] dissolved in dH2O at a concentration of 5 mg/mL and stored at −80° C. in 100 μL aliquots.
The Peptide/ATP mixture is prepared by mixing 9.979 mL dH2O with 0.00125 mL of cold 10 mM ATP, 0.010 mL of 5 mg/mL Debtide, and 0.010 mL of 10 μCi/mL γ^33P ATP.
A 2.5× kinase buffer is prepared by mixing 8.85 mL of dH2O with 0.625 mL of 1M Tris pH 7.4, 0.25 mL of 1M MgCl2, 0.25 mL of 10% NP40, and 0.025 mL of 1M DTT. Ten milliliters of kinase buffer mix is sufficient for about 4.5 assay plates.
Prepare solutions of inhibitors at 5× the desired final concentration in 5% DMSO. Add 10 μL to each well. For negative controls, add 10 μL 5% DMSO.
Dilute 5 μL of cdk2/cyclin A solution into 2.1 mL 2× kinase buffer (per plate) and add 20 μL enzyme per well. This can be added using a hand pipette or by using the Titertek Multidrop. […] For each freeze/thaw cycle, double the amount of enzyme used in the assay. Also, the enzyme should be thawed quickly (e.g., in the palm of one's hand) and be kept on ice prior to use in the assay. Add 10 μL of 0.5 M EDTA to the negative control wells.
To start kinase reaction, add 20 μL of peptide/ATP mixture using either a hand pipette or the Titertek Multidrop. Let sit on benchtop behind shield for one hour. No shaking is necessary and is not recommended when using Flexiplates (plates are not easy to add/remove from shaker).
Add 200 μL stop solution per well using either the Titertek Multidrop or hand pipette. Let stand at least 10 minutes. Spin plate approximately 2300 rpm for 3-5 minutes. Count plate on Trilux reader.
Background: Scintillation proximity formats need no separation of bound from free tracer.

The target in experiment [2] is T2, HER-2 (Homo sapiens, UniProt P04626).
T2 construct: expressed in mouse 3T3 (clone C7) cells; P00533 (Epidermal growth factor receptor)
T2 sequence (P04626 720-987 limits assumed): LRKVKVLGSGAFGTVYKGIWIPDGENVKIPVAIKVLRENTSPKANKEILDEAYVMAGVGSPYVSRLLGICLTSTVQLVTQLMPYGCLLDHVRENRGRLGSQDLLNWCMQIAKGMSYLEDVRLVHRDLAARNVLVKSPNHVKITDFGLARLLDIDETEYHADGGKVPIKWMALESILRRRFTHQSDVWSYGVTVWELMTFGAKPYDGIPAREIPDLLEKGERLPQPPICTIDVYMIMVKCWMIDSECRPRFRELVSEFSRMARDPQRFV
Nature of the experiment: Assay for modulation of HER-2 activity in whole cells (ELISA). Type of experiment: cell-based. The conditions noted are these: EGFR/HER-2chimera/#T3-C7 cell lines, EGF stimulated; read-out: HER-2 kinase IC50. How it is done: Using the following reagents, supplies, and method, the ability of compounds of the invention to affect the activity of HER-2 in whole cells in an ELISA format can be assigned.
EGFR/HER-2chimera/#T3-C7 cell lines are used for this assay. Choose dishes having 80-90% confluence for the experiment. Collect cells by trypsinization and centrifuge at 1000 rpm at room temperature for 5 minutes.
Resuspend cells in starve medium and count with trypan blue. Only viability above 90% is acceptable. Seed cells in starve medium at a density of 2,500 cells per well, 90 μL per well, in a 96 well microtiter plate. Incubate seeded cells in 5% CO2 at 37° C. overnight. Start the assay two days after seeding.
Samples are diluted directly into a polypropylene plate containing starve-DMEM (non-sterile is okay). This dilution will be 1:10 or greater, depending on the samples being screened. The same amount of DMSO is put into the control wells. […] are then transferred to the cell plate at a 1:10 dilution (10 μL of sample and media into 90 μL of starve media). The final DMSO concentration will be 1% or lower.
Ten samples are put into wells 2-11 of row A of the NUNC 96 well polypropylene plate. These wells contain straight starve-DMEM. For a 1:10 dilution, one would put 10 μL of drug into 90 μL of media. The rest of the wells (including the controls) will have a DMSO/media mixture. The percentage of DMSO in this mixture is determined by the first dilution factor, in this case 1:10. The DMSO concentration is therefore 10%. An equal amount of drug and media from row A is put into row B, containing DMSO and media. The same amount is then taken out and put into row C. This is repeated for all rows. These are 1:2 dilutions. All wells are then transferred to the cell plate at a 1:10 dilution (10 μL of sample and media into 90 μL of starve-DMEM. The final DMSO concentration will be 1% or lower. […]
After a 2 hour incubation with the drug, add prepared EGF ligand to cells at 50 μL per well, for a final concentration of 50 nM. Positive control wells (8) receive the same amount of EGF. […] Incubate at 37° C. for 10 minutes.
Remove drug, EGF, and DMEM by dumping in sink. Wash cells once with PBS.
Transfer HNTG* to cells, 100 μL per well. Place on ice for 5 minutes. Meanwhile, remove blocking buffer from ELISA plate and wash as described above. With a pipette tip securely fitted to a micropipettor, scrape cells from plate and homogenize cell material by repeatedly aspirating and dispensing the HNTG* lysis buffer. Transfer lysate to a coated, blocked, washed ELISA plate. Alternatively, one may use a Costar transfer cartridge to transfer lysate to the ELISA plate. Incubate, shaking, at room temperature for one hour.
Remove lysate by dumping in sink, then wash as described earlier. Transfer freshly diluted anti-phosphotyrosine (anti-Ptyr) antibody (1:3000 in TEST) to ELISA plate, 100 μL per well. Incubate, shaking, at room temperature, for 30 minutes.
Remove anti-Ptyr antibody by dumping in sink, then wash as described earlier. Transfer freshly diluted BIOSOURCE antibody to ELISA plate, (1:8000 in TEST), 100 μL per well. Incubate, shaking, at room temperature for 30 minutes.
Remove BIOSOURCE antibody by dumping in sink, then wash as described earlier. Transfer freshly prepared ABTS/H2O2 solution to ELISA plate, […]. Incubate 5-10 minutes while shaking. Remove any bubbles and if necessary, stop reaction with the addition of 100 μL of 0.2 M HCl per well.
Read assay on Dynatech MR7000 ELISA reader. Test Filter: […]; Reference Filter: […]. A preferred template for the placement of controls in this experiment is provided below: […]
(ELISA stands for enzyme-linked immunosorbent assay.)

Usually IC50 stands for the midpoint of a concentration-inhibition curve.

As to `Cc1cc(C(=O)NCCN2CCOCC2)[nH]c1C=C1C(=O)Nc2nccc(Nc3ccc(F)c(Cl)c3)c21` [Formula 3, 5-[4-(3-CHLORO-4-FLUORO-PHENYLAMINO)-2-OXO-1,2-DIHYDRO-PYRROLO[2,3-B]PYRIDIN-3-YLIDENEMETHYL]-4-METHYL-1H-PYRROLE-2-CARBOXYLIC ACID (2-MORPHOLIN-4-YL-ETHYL)-AMIDE], the IC50 is above 10000 nM in experiment [1] and 272 nM in experiment [2].

Turning to `Cc1cc(C(=O)NCCN2CCOCC2)[nH]c1C=C1C(=O)Nc2ncnc(Nc3ccc(F)c(Cl)c3)c21` [Formula 4, 5-[4-(3-CHLORO-4-FLUORO-PHENYLAMINO)-6-OXO-6,7-DIHYDRO-PYRROLO[2,3-D]PYRIMIDIN-5-YLIDENEMETHYL]-4-METHYL-1H-PYRROLE-2-CARBOXYLIC ACID (2-MORPHOLIN-4-YL-ETHYL)-AMIDE HYDROCHLORIDE], the results for the concentration for half-maximal inhibition (IC50) in experiment [1] and in experiment [2] were above 10000 nM and 160 nM, respectively.

Consider `Cc1nc[nH]c1C=C1C(=O)Nc2ncnc(Nc3ccc(F)c(Cl)c3)c21` [Formula 8], for which the IC50 is 2620 nM in experiment [1] and 100 nM in experiment [2].

As for `Cc1nc[nH]c1C=C1C(=O)Nc2ncnc(N3CCN(C)CC3)c21` [Formula 11], the concentration for half-maximal inhibition (IC50) was 10 nM in experiment [1] and above 100000 nM in experiment [2].

Consider `Cc1nc[nH]c1C=C1C(=O)Nc2ncnc(N3CCOCC3)c21` [Formula 14], for which the IC50 in experiment [1] was 40 nM; in experiment [2] it was above 100000 nM.

On to `Cc1cc(C(=O)N2CCOCC2)[nH]c1/C=C1\C(=O)N(C)c2ncnc(Nc3ccc(F)c(Cl)c3)c21` [Formula 34], for which the IC50 in experiment [2] is above 20000 nM.

For the compound `Cc1cc(C(=O)N2CCN(C)CC2)[nH]c1/C=C1\C(=O)N(C)c2ncnc(Nc3ccc(F)c(Cl)c3)c21` [Formula 36], in experiment [2], the IC50 is above 20000 nM.

For `Cc1cc(C=C2C(=O)Nc3ncnc(Nc4ccc(F)c(Cl)c4)c32)[nH]c1C(=O)N1CCOCC1` [Formula 37], the IC50 in experiment [2] came out at 1070 nM.
